From patent US12509444B2, “Compounds and methods for CD73 modulation and indications therefor” (Plexxikon Inc., priority 2019, dated 2025)

Assays:
[1] = target: T1, Human CD73 (amino acid residues 27-549) (Homo sapiens, UniProt P21589); experiment: CD73 enzymatic assay (luciferase-based indirect assay, CellTiter-Glo); type: biochemical; conditions: 0.4 nM CD73, 150 μM AMP, 1 hour at room temperature
T1 construct: Human CD73 (amino acid residues 27-549); His tag (N); made in house; host or cells: E. coli
T1 sequence (P21589 27-549): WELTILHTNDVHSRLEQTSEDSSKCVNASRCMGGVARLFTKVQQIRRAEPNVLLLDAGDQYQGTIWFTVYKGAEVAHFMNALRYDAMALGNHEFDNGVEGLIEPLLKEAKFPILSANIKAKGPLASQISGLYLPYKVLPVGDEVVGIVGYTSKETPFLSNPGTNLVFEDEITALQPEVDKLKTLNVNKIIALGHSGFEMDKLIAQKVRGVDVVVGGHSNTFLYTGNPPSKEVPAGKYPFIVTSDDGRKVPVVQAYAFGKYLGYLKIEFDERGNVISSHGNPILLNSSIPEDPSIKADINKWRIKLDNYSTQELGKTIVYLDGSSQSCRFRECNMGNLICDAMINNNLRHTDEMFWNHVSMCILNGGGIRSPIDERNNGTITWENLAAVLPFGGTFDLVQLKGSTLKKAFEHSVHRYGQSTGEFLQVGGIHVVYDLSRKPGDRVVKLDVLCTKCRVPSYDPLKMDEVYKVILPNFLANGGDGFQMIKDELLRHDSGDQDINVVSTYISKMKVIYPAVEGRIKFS
How it was run: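 Residual AMP inhibits luciferase, so luminescence reports CD73 turnover; read with CellTiter-Glo 2.0 plus 1 μM final ATP, 30 min. Reaction used 0.4 nM N-His CD73 (27-549, E. coli), 150 μM AMP, HEPES pH 7.4 with Tween 20, 1 h at room temperature. IC50 fitted by nonlinear regression.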

[2] = target: T2, human CD73 (Homo sapiens, UniProt P21589); experiment: Inhibitor activity against CD73 in cell based assay (CD73 expressing CHO-K1 cells); conditions: CHO-K1 cells expressing human CD73, 150 μM AMP, 4 hours of incubation; read-out: CHO-K1 CELL VARIANT: CD73 IC50
T2 construct: expressed in transfected cells
T2 sequence (P21589 27-549): T1 sequence (P21589 27-549)
How it was run: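 Residual supernatant AMP was quantified via CellTiter-Glo luminescence (1 μM ATP added, 30 min, room temperature) after a 4 h exposure of human CD73-expressing CHO-K1 cells to 150 μM AMP plus compound, top final 10 μM, 8 points. IC50 came from nonlinear regression of percent inhibition.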

`O=C(NC1CC2CC2C1)O[C@@H]1CCN(c2cn[nH]c(=O)c2Cl)C1` (stereo partly drawn) [P-0385, (R)-1-(5-chloro-6-oxo-1,6-dihydropyridazin-4-yl)pyrrolidin-3-yl bicyclo[3.1.0]hexan-3-ylcarbamate] was tested. Which IC50 [1] did it give?
Its IC50 is 0.001 to 10 µM.

And the IC50 [2]?
Its IC50 is 0.001 to 10 µM.

With `O=C(NC1CCCC1(F)F)O[C@@H]1CCN(c2cn[nH]c(=O)c2Cl)C1` (stereo partly drawn) [P-0386, (R)-1-(5-chloro-6-oxo-1,6-dihydropyridazin-4-yl)pyrrolidin-3-yl (2,2-difluorocyclopentyl)carbamate] as the molecule, how does the IC50 [1] read?
The IC50 was 0.001 to 10 µM.

What about the IC50 [2] of the same molecule?
Its IC50 is 0.001 to 10 µM.

For `CC1(C)CCC(NC(=O)O[C@@H]2CCN(c3cn[nH]c(=O)c3Cl)C2)C1` (stereo partly drawn) [P-0387, (R)-1-(5-chloro-6-oxo-1,6-dihydropyridazin-4-yl)pyrrolidin-3-yl (3,3-dimethylcyclopentyl)carbamate], which IC50 [1] is on record?
Its IC50 is 0.001 to 10 µM.

And the IC50 [2]?
The IC50 was 0.001 to 10 µM.

Which results are given for `O=C(NC1CCN(C(=O)Nc2ccccc2C(F)(F)F)CC1)O[C@@H]1CCN(c2cn[nH]c(=O)c2Cl)C1` [P-0388, (R)-1-(5-chloro-6-oxo-1,6-dihydropyridazin-4-yl)pyrrolidin-3-yl (1-((2-(trifluoromethyl)phenyl)carbamoyl)piperidin-4-yl) carbamate]?
IC50 [1]: 0.001 to 10 µM; IC50 [2]: 0.001 to 10 µM

`O=C(NC1CCN(C(=O)Nc2ccc(C(F)(F)F)cc2)CC1)O[C@@H]1CCN(c2cn[nH]c(=O)c2Cl)C1` [P-0389, (R)-1-(5-chloro-6-oxo-1,6-dihydropyridazin-4-yl)pyrrolidin-3-yl (1-((4-(trifluoromethyl)phenyl)carbamoyl)piperidin-4-yl) carbamate] was tested. Which IC50 [1] did it give?
Its IC50 is 0.001 to 10 µM.

And the IC50 [2]?
The IC50 was 0.001 to 10 µM.

Which IC50 [1] does the source give for `O=C(NC1CCN(C(=O)Nc2ccccc2F)CC1)O[C@@H]1CCN(c2cn[nH]c(=O)c2Cl)C1` [P-0390, (R)-1-(5-chloro-6-oxo-1,6-dihydropyridazin-4-yl)pyrrolidin-3-yl (1-((2-fluorophenyl)carbamoyl)piperidin-4-yl)carbamate] here?
Its IC50 is 0.001 to 10 µM.

And the IC50 [2]?
Its IC50 is 0.001 to 10 µM.

For `O=C(NC1CCN(C(=O)Nc2cccc(F)c2)CC1)O[C@@H]1CCN(c2cn[nH]c(=O)c2Cl)C1` [P-0391, (R)-1-(5-chloro-6-oxo-1,6-dihydropyridazin-4-yl)pyrrolidin-3-yl (1-((3-fluorophenyl)carbamoyl)piperidin-4-yl)carbamate], which IC50 [1] is on record?
Its IC50 is 0.001 to 10 µM.

What about the IC50 [2] of the same molecule?
Its IC50 is 0.001 to 10 µM.

`O=C(NC1CCCC1)O[C@@H]1CCN(c2cnn(CCO)c(=O)c2Cl)C1` [P-0392, (R)-1-(5-chloro-1-(2-hydroxyethyl)-6-oxo-1,6-dihydropyridazin-4-yl)pyrrolidin-3-yl cyclopentylcarbamate] was tested. Which IC50 [1] did it give?
Its IC50 is 0.001 to 10 µM.

What about the IC50 [2] of the same molecule?
Its IC50 is 0.001 to 10 µM.

What does the source list for `O=C(N[C@H]1CC[C@H](NS(=O)(=O)c2cnn(C3CCCC3)c2)CC1)O[C@@H]1CCN(c2cn[nH]c(=O)c2Cl)C1` [P-0393, (R)-1-(5-chloro-6-oxo-1,6-dihydropyridazin-4-yl)pyrrolidin-3-yl ((1r,4R)-4-((1-cyclopentyl-1H-pyrazole)-4-sulfonamido)cyclohexyl) carbamate]?
IC50 [1]: 0.001 to 10 µM; IC50 [2]: 0.001 to 10 µM

What does the source list for `CN([C@H]1CC[C@H](NC(=O)O[C@@H]2CCN(c3cn[nH]c(=O)c3Cl)C2)CC1)S(C)(=O)=O` [P-0394, (R)-1-(5-chloro-6-oxo-1,6-dihydropyridazin-4-yl)pyrrolidin-3-yl ((1r,4R)-4-(N-methylmethylsulfonamido)cyclohexyl)carbamate]?
IC50 [1]: 0.001 to 10 µM; IC50 [2]: 0.001 to 10 µM

Which results are given for `N#Cc1c(N2CC[C@@H](OC(=O)NC3CCCC3)C2)cn[nH]c1=O` [P-0395, (R)-1-(5-cyano-6-oxo-1,6-dihydropyridazin-4-yl)pyrrolidin-3-yl cyclopentylcarbamate]?
IC50 [1]: 0.001 to 10 µM; IC50 [2]: 0.001 to 10 µM

How did the IC50 [1] turn out when `CCn1cc(S(=O)(=O)N[C@H]2CC[C@H](NC(=O)O[C@@H]3CCN(c4cn[nH]c(=O)c4Cl)C3)CC2)cn1` [P-0396, (R)-1-(5-chloro-6-oxo-1,6-dihydropyridazin-4-yl)pyrrolidin-3-yl ((1r,4R)-4-((1-ethyl-1H-pyrazole)-4-sulfonamido)cyclohexyl) carbamate] was run?
The IC50 was 0.001 to 10 µM.

What about the IC50 [2] of the same molecule?
The IC50 was 0.001 to 10 µM.

With `O=C(NC1CCCC1)O[C@@H]1CCN(c2cnn(CC(O)CO)c(=O)c2Cl)C1` (stereo partly drawn) [P-0397, (3R)-1-(5-chloro-1-(2,3-dihydroxypropyl)-6-oxo-1,6-dihydropyridazin-4-yl)pyrrolidin-3-yl cyclopentylcarbamate] as the molecule, how does the IC50 [1] read?
The IC50 was 0.001 to 10 µM.

And the IC50 [2]?
Its IC50 is 0.001 to 10 µM.

How did the IC50 [1] turn out when `O=C(NC1CC1)N[C@H]1CC[C@@H](NC(=O)O[C@@H]2CCN(c3cnn(CCO)c(=O)c3Cl)C2)CC1` [P-0398, (R)-1-(5-chloro-1-(2-hydroxyethyl)-6-oxo-1,6-dihydropyridazin-4-yl)pyrrolidin-3-yl ((1s,4S)-4-(3-cyclopropylureido)cyclohexyl) carbamate] was run?
The IC50 was 0.001 to 10 µM.

What about the IC50 [2] of the same molecule?
Its IC50 is 0.001 to 10 µM.

Which results are given for `C[C@H](O)C(=O)N1CCC(NC(=O)O[C@@H]2CCN(c3cn[nH]c(=O)c3Cl)C2)CC1` [P-0399, (R)-1-(5-chloro-6-oxo-1,6-dihydropyridazin-4-yl)pyrrolidin-3-yl (1-((S)-2-hydroxypropanoyl)piperidin-4-yl)carbamate]?
IC50 [1]: 0.001 to 10 µM; IC50 [2]: 0.001 to 10 µM

Which results are given for `C[C@@H](O)C(=O)N1CCC(NC(=O)O[C@@H]2CCN(c3cn[nH]c(=O)c3Cl)C2)CC1` [P-0400, (R)-1-(5-chloro-6-oxo-1,6-dihydropyridazin-4-yl)pyrrolidin-3-yl (1-((R)-2-hydroxypropanoyl)piperidin-4-yl)carbamate]?
IC50 [1]: 0.001 to 10 µM; IC50 [2]: 0.001 to 10 µM

What does the source list for `O=C(NC1CCN(C(=O)C2CCCO2)CC1)O[C@@H]1CCN(c2cn[nH]c(=O)c2Cl)C1` (stereo partly drawn) [P-0401, (R)-1-(5-chloro-6-oxo-1,6-dihydropyridazin-4-yl)pyrrolidin-3-yl (1-(tetrahydrofuran-2-carbonyl)piperidin-4-yl)carbamate]?
IC50 [1]: 0.001 to 10 µM; IC50 [2]: 0.001 to 10 µM

`O=C(NC1CCN(C(=O)c2ccccc2F)CC1)O[C@@H]1CCN(c2cn[nH]c(=O)c2Cl)C1` [P-0402, (R)-1-(5-chloro-6-oxo-1,6-dihydropyridazin-4-yl)pyrrolidin-3-yl (1-(2-fluorobenzoyl)piperidin-4-yl)carbamate] was tested. Which IC50 [1] did it give?
The IC50 was 0.001 to 10 µM.

What about the IC50 [2] of the same molecule?
Its IC50 is 0.001 to 10 µM.

`O=C(NC1CCN(C(=O)c2ccccc2C(F)(F)F)CC1)O[C@@H]1CCN(c2cn[nH]c(=O)c2Cl)C1` [P-0403, (R)-1-(5-chloro-6-oxo-1,6-dihydropyridazin-4-yl)pyrrolidin-3-yl (1-(2-(trifluoromethyl)benzoyl)piperidin-4-yl)carbamate] was tested. Which IC50 [1] did it give?
The IC50 was 0.001 to 10 µM.

And the IC50 [2]?
The IC50 was 0.001 to 10 µM.

Which results are given for `O=C(NC1CCN(C(=O)c2ccc(F)cc2)CC1)O[C@@H]1CCN(c2cn[nH]c(=O)c2Cl)C1` [P-0404, (R)-1-(5-chloro-6-oxo-1,6-dihydropyridazin-4-yl)pyrrolidin-3-yl (1-(4-fluorobenzoyl)piperidin-4-yl)carbamate]?
IC50 [1]: 0.001 to 10 µM; IC50 [2]: 0.001 to 10 µM

How did the IC50 [1] turn out when `CC1(NC(=O)O[C@@H]2CCN(c3cn[nH]c(=O)c3Cl)C2)CCCC1` [P-0405, (R)-1-(5-chloro-6-oxo-1,6-dihydropyridazin-4-yl)pyrrolidin-3-yl (1-methylcyclopentyl)carbamate] was run?
Its IC50 is 0.001 to 10 µM.

And the IC50 [2]?
The IC50 was 0.001 to 10 µM.

What does the source list for `O=C(NC1(C2CCCC2)CC1)O[C@@H]1CCN(c2cn[nH]c(=O)c2Cl)C1` [P-0406, (R)-1-(5-chloro-6-oxo-1,6-dihydropyridazin-4-yl)pyrrolidin-3-yl (1-cyclopentylcyclopropyl) carbamate]?
IC50 [1]: 0.001 to 10 µM; IC50 [2]: 0.001 to 10 µM

What does the source list for `O=C1CC2CCC(C1)C2NC(=O)O[C@@H]1CCN(c2cn[nH]c(=O)c2Cl)C1` (stereo partly drawn) [P-0407, (R)-1-(5-chloro-6-oxo-1,6-dihydropyridazin-4-yl)pyrrolidin-3-yl (3-oxobicyclo[3.2.1]octan-8-yl)carbamate]?
IC50 [1]: 0.001 to 10 µM; IC50 [2]: 0.001 to 10 µM

`CCC1(NC(=O)O[C@@H]2CCN(c3cn[nH]c(=O)c3Cl)C2)CCCC1` [P-0408, (R)-1-(5-chloro-6-oxo-1,6-dihydropyridazin-4-yl)pyrrolidin-3-yl (1-ethylcyclopentyl)carbamate] was tested. Which IC50 [1] did it give?
The IC50 was 0.001 to 10 µM.

And the IC50 [2]?
Its IC50 is 0.001 to 10 µM.

`CS(=O)(=O)N[C@H]1CC[C@H](NC(=O)O[C@@H]2CCN(c3cnn(CC(O)CO)c(=O)c3Cl)C2)CC1` (stereo partly drawn) [P-0409, (3R)-1-(5-chloro-1-(2,3-dihydroxypropyl)-6-oxo-1,6-dihydropyridazin-4-yl)pyrrolidin-3-yl ((1r,4R)-4-(methylsulfonamido)cyclohexyl)carbamate] was tested. Which IC50 [1] did it give?
Its IC50 is 0.001 to 10 µM.

What about the IC50 [2] of the same molecule?
Its IC50 is 0.001 to 10 µM.

Which results are given for `O=C(NC1(C2CCCCC2)CC1)O[C@@H]1CCN(c2cn[nH]c(=O)c2Cl)C1` [P-0410, (R)-1-(5-chloro-6-oxo-1,6-dihydropyridazin-4-yl)pyrrolidin-3-yl (1-cyclohexylcyclopropyl) carbamate]?
IC50 [1]: 0.001 to 10 µM; IC50 [2]: 0.001 to 10 µM
